Measured values: patent US5668144A, “1-azabicyclopheptane derivatives” (American Home Products Corporation, priority 1996, dated 1997)

Experiments:
muscarinic receptors = conditions: disclosed in earlier patents; cited from earlier work
[1] = target: T1, M1 acetylcholine receptors (Homo sapiens, UniProt P11229); test: PI hydrolysis stimulation in CHO cells expressing M1 acetylcholine receptors (muscarinic m1 agonism); type: cell-based; conditions: exo versus endo azacycloheptane analog
T1 sequence (P11229 1-460): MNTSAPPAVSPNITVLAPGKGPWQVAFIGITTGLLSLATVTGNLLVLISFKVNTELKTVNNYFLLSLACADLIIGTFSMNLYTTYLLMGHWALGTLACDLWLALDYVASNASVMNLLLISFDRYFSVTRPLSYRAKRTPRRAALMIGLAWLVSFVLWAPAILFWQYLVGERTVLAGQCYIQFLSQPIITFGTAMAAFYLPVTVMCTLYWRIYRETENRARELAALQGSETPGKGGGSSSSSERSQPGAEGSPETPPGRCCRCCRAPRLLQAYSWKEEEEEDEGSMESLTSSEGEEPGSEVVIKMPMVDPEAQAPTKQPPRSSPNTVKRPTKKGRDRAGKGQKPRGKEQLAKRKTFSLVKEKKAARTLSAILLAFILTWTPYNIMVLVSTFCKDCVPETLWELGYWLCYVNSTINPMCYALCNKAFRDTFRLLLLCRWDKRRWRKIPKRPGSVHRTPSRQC

[2] = in vivo; cited from earlier work
[3] = tested on: patients with mild to moderate Alzheimer's Disease; conditions: cited from earlier work; for memory in patients (in words): mild to moderate Alzheimer's Disease
[4] = quaternary ammonium group; cited from earlier work
m1 receptors = conditions: cited from earlier work
[5] = tested on: scopolamine disrupted rat performance; test: Eight arm radial maze, reversal of scopolamine disrupted rat performance; type: in vivo, Sprague-Dawley male rats; conditions: ip, test compound i.p., scopolamine HBr 0.3 mg/kg s.c., read-out: minimum effective dose (MED), reversal of scopolamine disrupted rat performance
Protocol: The compound of Example 3 was also tested in the eight arm radial maze test procedure in which Sprague-Dawley male rats at 85% of their free feeding weight are trained to obtain two food pellets from food cups placed at the ends of four of the eight arms radiating from a circular central area of the maze, in a five minute period. After training to a level of error (return to a previously entered arm is error) equal to or less than 2, the rats performance is disrupted with scopolamine HBr (0.3 mg/kg, s.c.) and test compound dosage (i.p.). The number of errors are then determined and compared with control receiving scopolamine alone.

[6] = tested on: scopolamine treated animals; test: Reversal of scopolamine hyperactivity, mouse swim tank test; type: in vivo, Male CFW mice; conditions: ip, scopolamine HBr 0.3 mg/kg, read-out: minimum effective dose (MED), reversal of hyperactivity of scopolamine treated animals
Protocol: The compound of Example 3, representative of the other compounds of this invention, was also tested in accordance with the procedure of Symons et al, Soc. Neuroscience Abstracts 12:2, 897 (1986) in which Male CFW mice, 25 to 35 grams in weight are given the test compound in suitable vehicle plus 0.3 mg/kg scopolamine. HBr in suitable vehicle, i.p.(3 groups of 12 animals each) or vehicle alone (1 group of 12 animals ) or vehicle plus scopolamine. HBr (1 group of 12 animals). The mice are placed in a swim tank, individually, containing 10 cm H2 O for a period of 5 minutes and the distance each animal swims is recorded.

For `CN(C)C(=O)OC1CC2CCCN(C2)C1` (stereo not drawn) [exo-1-azabicyclo[3.3.1]non-3-yl-N,N-dimethylcarbamate], the “muscarinic activity (in words)” value (muscarinic receptors) is listed as “muscarinic activity”.

In the case of `CNC(=O)O[C@@H]1CN2CC[C@H]1C2` (relative stereo) [endo azacycloheptane analog], the “muscarinic agonism (in words)” value [1] is reported as “not”.

In the case of `CNC(=O)O[C@@H]1CN2CC[C@@H]1C2` (relative stereo) [Example 1, (exo)-Methylcarbamic acid 1-aza-bicyclo[2.2.1]hept-3-yl ester], the “muscarinic agonism (in words)” value [1] is reported as “enhanced muscarinic agonism”.

For `COC(=O)C1=CCCN(C)C1` [Arecoline], the “half-life (in words)” value [2] is listed as “short” and the “memory in patients (in words)” value [3] is listed as “memory improvement”.

In the case of `C[C@@H]1O[C@H](C[N+](C)(C)C)C[C@H]1O` [muscarine], the “ability to enter the CNS (in words)” value [4] is listed as “not able to enter the CNS” and the “activation of m1 receptors (in words)” value (m1 receptors) is listed as “able to fully activate m1 receptors”.

For `CNC(=O)OC1CN2CCCC1C2` (stereo not drawn) [exo-1-azabicyclo[3.2.1]oct-6-yl-N-methylcarbamate], the “muscarinic activity (in words)” value (muscarinic receptors) is given as “muscarinic activity”.

For `CNC(=O)OC1CC2CCCN(C2)C1` (stereo not drawn) [exo-1-azabicyclo[3.3.1]non-3-yl-N-methylcarbamate], the “muscarinic activity (in words)” value (muscarinic receptors) is listed as “muscarinic activity”.

In the case of `CNC(=O)O[C@@H]1CN2CC[C@@H]1C2` (single isomer, unassigned) [Example 2, (+)-(exo)-Methylcarbamic acid 1-aza-bicyclo[2.2.1]hept-3-yl ester], the minimal effective dose [5] is reported as 1 mg/kg.

In the case of `Nc1c2c(nc3ccccc13)CCCC2` [tacrine], the “adverse side effects (in words)” value ([3]; especially at the higher doses where it is most effective) is listed as “adverse side effects especially at the higher doses” and the “memory in patients (in words)” value [3] is listed as “improvement in memory”.

`CNC(=O)O[C@@H]1CN2CC[C@@H]1C2` (single isomer, unassigned) [Example 3, (-)-(exo)-Methylcarbamic acid 1-aza-bicyclo[2.2.1]hept-3-yl ester] showed a minimal effective dose [6] of 30 mg/kg.

For `C[N+](C)(C)CCOC(N)=O` [carbachol], the “ability to enter the CNS (in words)” value [4] is given as “not able to enter the CNS”.
